According to US4868203A, “Bacterial substance and pharmaceutical composition thereof” (Kabushikikaisha Ueno Seiyaku Oyo Kenkyujo, priority 1986, dated 1989):
Values after ≈ are worked out from the molar mass of the structure shown.

What was measured:
[1] = test system: Pasteurella piscicida; test: microbe, parasite or virus in culture; type: cell-based; details: Photobacterium damselae
[2] = Storage life of kamaboko, rot-proof property (Test Example 4); details: 0.2%, pH 6.58, 30° C.
Method: Fish paste was prepared by adding NaCl (2.5%), chemical seasoning (0.8%), starch (5%) and ice water (10%) based on frozen surimi of walleye pollack (4 kg) and cutting by a silent cutter for 10 minutes. Predetermined amount of bacterial substance UFC-N11 based on the resulting fish paste (2 kg) was added and completely mixed in a small mixer for 5 minutes. About 100 g fish paste were enclosed with polyvinylidene chloride film (spread width:45 mm), boiled at 90° C. for 30 minutes, quenched, left overnight and then tested for rot-proof property.
The test was conducted as follows. As the complete package products, 10 pieces/group of kamaboko processed by casing method samples and, as the simplified package products, 10 pieces/group prepared by peeling off the casing under sterilized condition, cutting into 2 round slices (thickness: 10 mm) by a sterilized knife and placing in a sterilized plastic Petri dish. were placed in a thermostatic chamber at 30° C. and evaluated by macroscopically observation. The evaluation uses five-level scale shown below. The period until the average evaluation value of 1 is attained is defined as the storage life.

[3] = test system: Xanthomonas campestris PV citri

Row | Compound | MIC ([1]; strain AT-1) | MIC ([1]; strain AT-17) | MIC ([1]; strain KGP86041) | MIC ([1]; strain MEP35) | MIC ([1]; strain MEP151) | MIC ([1]; strain MS86115) | MIC ([1]; strain MS86169) | MIC ([1]; strain SP6275) | MIC ([1]; strain SP6291) | MIC ([1]; strain WP96) | Storage life, Complete package [2] | Storage life, simplified package [2] | Prevention ([3]; Streptomycin, concentration printed as 0 ppm, 14 days) | Damage ([3]; in vivo)
1 | CC1(C)S[C@@H]2[C@H](NC(=O)[C@H](N)c3ccccc3)C(=O)N2[C@H]1C(=O)O [Ampicillin] | > 10 µg/mL | > 10 µg/mL | 0.039 µg/mL (≈ 0.112 µM) | 0.039 µg/mL (≈ 0.112 µM) | > 10 µg/mL | 0.039 µg/mL (≈ 0.112 µM) | > 10 µg/mL | 0.039 µg/mL (≈ 0.112 µM) | > 10 µg/mL | 0.078 µg/mL (≈ 0.223 µM) |  |  |  | 
2 | O=C(O)c1ccc(/C=C/c2ccc([N+](=O)[O-])o2)cc1 [Nifurstyrenic acid] | 1.25 µg/mL (≈ 4.82 µM) | 0.31 µg/mL (≈ 1.2 µM) | 2.5 µg/mL (≈ 9.64 µM) | 2.5 µg/mL (≈ 9.64 µM) | 0.31 µg/mL (≈ 1.2 µM) | 0.31 µg/mL (≈ 1.2 µM) | 2.5 µg/mL (≈ 9.64 µM) | 0.63 µg/mL (≈ 2.43 µM) | 0.16 µg/mL (≈ 0.617 µM) | 0.31 µg/mL (≈ 1.2 µM) |  |  |  | 
3 | CCn1cc(C(=O)O)c(=O)c2cc3c(cc21)OCO3 [Oxolinic acid] | 1.25 µg/mL (≈ 4.79 µM) | 1.25 µg/mL (≈ 4.79 µM) | 0.078 µg/mL (≈ 0.299 µM) | 1.25 µg/mL (≈ 4.79 µM) | 1.25 µg/mL (≈ 4.79 µM) | 1.25 µg/mL (≈ 4.79 µM) | 0.078 µg/mL (≈ 0.299 µM) | 1.25 µg/mL (≈ 4.79 µM) | 0.039 µg/mL (≈ 0.149 µM) | 0.039 µg/mL (≈ 0.149 µM) |  |  |  | 
4 | C/C=C/C=C/C(=O)O [Sorbic acid, reference compound] |  |  |  |  |  |  |  |  |  |  | 12.0 days | 7.0 days |  | 
5 | [H]/N=C(/N)N[C@H]1[C@H](O)[C@@H](O)[C@H](O[C@@H]2O[C@@H](C)[C@](O)(C=O)[C@H]2O[C@@H]2O[C@@H](CO)[C@H](O)[C@@H](O)[C@@H]2NC)[C@@H](N/C(N)=N\[H])[C@@H]1O [Streptomycin, reference compound] |  |  |  |  |  |  |  |  |  |  |  |  | 30.3% | nil
